Measured values reported in patent publication US4639468A, “Derivatives of glycinamide, their preparation and their use” (priority 1979, dated 1987).

Columns and labels:
[1] = in vivo; settings: mouse, in vivo, po, mice; Table II; read-out: DL50 (the source's name)
[2] = tested on: convulsions induced by bicuculline; test: in vivo; settings: for bicuculline (score: sum of animals protected by dosages of 10 and 100 mgr/kg): oral, 5 mice each, 3 hours before bicuculline 0.6 mgr/kg i.v., tonic convulsions
Protocol: The anticonvulsive effect was examined for tonic convulsions induced by bicuculline. The compounds of the invention were administrated orally at dosages of 10 and 100 mgr/kg, each to 5 mice, 3 hours before intravenous injection of bicuculline at the dosage of 0.6 mgr/kg. The number of mice protected against tonic convulsions and the number of dead mice were noted.
Amongst the substances according to the invention, 2-n-pentylaminoacetamideand its hydrochloride were more particularly studied. […] The hydrochloride was also administered intravenously. […] Table III also gives the therapeutical index (LD50/ED50).

| Structure (SMILES) | LD50 [1] | bicuculline (score: sum of animals protected by dosages of 10 and 100 mgr/kg) [2] | ED50 ([2]; Mus musculus, iv, 3 h, read-out: DE50) |
| --- | --- | --- | --- |
| NC(=O)CNCCCCCCO [Compound 4] | > 3000 mg/kg | 4 | – |
| NC(=O)CN(CCCCCCO)CC(N)=O [Compound 5] | > 3000 mg/kg | 2 | – |
| COC(=O)CCCCCN(CC(N)=O)CC(N)=O [Compound 6, Methyl 6-(dicarboxamidomethyl)aminohexanoate] | > 3000 mg/kg | 6 | – |
| NC(=O)CNCCCCO [Compound 7] | – | 2 | – |
| CCCCCCCCCCCCCCCCCCNCC(N)=O [Compound 10, 2-n-octadecylaminoacetamide] | > 3000 mg/kg | 1 | – |
| CCCCCCCCCCCCNCC(N)=O [Compound 13, 2-n-docecylaminoacetamide] | > 3000 mg/kg | 2 | – |
| CCOC(=O)CCCCCCCNCC(N)=O [Compound 16] | > 1000 mg/kg | 5 | – |
| CCCCCCCCC=CCCCCCCCCNCC(N)=O [Compound 17, 2-n-octadecen-9-ylaminoacetamide] | > 3000 mg/kg | 2 | – |
| NC(=O)CNCCc1ccccc1 [Compound 36, 2-(2-phenylethyl)aminocacetamide] | – | 7 | – |
| CCCCCCNCC(=O)NCCCCCC [Compound 37, N-n-hexyl-2-(n-hexylamino)acetamide] | – | 3 | – |
| CCCCCCNCC(=O)NC [Compound 38] | – | 3 | – |
| C=CCCCCCNCC(N)=O [Compound 40] | – | 4 | – |
| CCCCCNC(C)C(N)=O (centres unmarked) [Compound 41] | – | 4 | – |
| C#CC(C)(C)NCC(N)=O [Compound 42, 2-(1,1-dimethylpropyn-2-yl)aminoacetamide] | – | 6 | – |
| CCCCCCN(CC(N)=O)C(=O)C(C)(C)C [Compound 45] | – | 3 | – |
| CCCCCNC(C(N)=O)c1ccccc1 (centres unmarked) [Compound 46] | – | 5 | – |
| CCCCCCN(CC(N)=O)C(=O)OCC [Compound 47, Ethyl N-n-hexyl-N-carboxamidomethylcarbamate] | – | 8 | – |
| CCCCCNC(CC)C(N)=O (centres unmarked) [Compound 48, 2-(n-pentylamino)-butyramide] | – | 6 | – |
| NC(=O)CNCCCc1ccccc1 [Compound 49, 2-(3-phenylpropyl)aminoacetamide] | – | 7 | – |
| C=CCCCCCCNCC(N)=O [Compound 50] | – | 6 | – |
| NC(=O)CNCCCCCCCC(=O)O [Compound 51, 8-carboxamidomethylaminooctanoic acid] | – | 6 | – |
| NC(=O)CNCCCCc1ccccc1 [Compound 52, 2-(4-phenylbutyl)aminoacetamide] | – | 7 | – |
| CCCCCCNCC(=O)Nc1cccc(Cl)c1 [Compound 53] | – | 4 | – |
| CCCCCCNCC(=O)N(C)C [Compound 54] | – | 4 | – |
| CCCCNC(=O)C(C(C)C)N(CCCCOc1ccccc1)C(C)=O (centres unmarked) [Compound 55, N-n-butyl-2-[N-acetyl-N-(4-phenoxybutyl)]aminoisovaleramide] | – | 6 | – |
| NC(=O)CNCCC(c1ccccc1)c1ccccc1 [Compound 56] | – | 4 | – |
| NC(=O)CNCCOc1ccccc1 [Compound 57] | – | 5 | – |
| O=C1NC(=O)C(c2ccccc2)(c2ccccc2)N1 [Na Diphenylhydantoin, reference compound] | – | – | 2.63 mg/kg |
